Results on four molecules are retold here after patent publication US7244730B2, “2-iminopyrrolidine derivatives” (Eisai Co., Ltd, priority 2001, dated 2007).

In general, IC50 refers to the point on the concentration scale where inhibition reaches its midpoint.

Experiment [1] addresses T1, thrombin receptor (Homo sapiens, UniProt P25116).
T1 construct: centrifuged at 40,000 g for 60 minutes to yield platelet membrane; from tissue; host or cells: platelet membrane prepared from donor blood (platelet rich plasma)
T1 sequence (P25116 22-425): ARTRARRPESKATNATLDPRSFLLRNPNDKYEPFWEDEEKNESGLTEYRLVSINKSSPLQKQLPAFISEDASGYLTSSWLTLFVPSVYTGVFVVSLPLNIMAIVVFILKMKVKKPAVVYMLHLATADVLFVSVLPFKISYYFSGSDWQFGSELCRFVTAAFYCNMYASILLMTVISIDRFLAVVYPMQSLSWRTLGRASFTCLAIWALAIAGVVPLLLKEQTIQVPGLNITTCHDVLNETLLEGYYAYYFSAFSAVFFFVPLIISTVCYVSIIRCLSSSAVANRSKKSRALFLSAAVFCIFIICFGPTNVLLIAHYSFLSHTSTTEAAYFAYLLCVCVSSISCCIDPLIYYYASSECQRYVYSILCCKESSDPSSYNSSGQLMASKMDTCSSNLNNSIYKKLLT
Kind of experiment: Receptor binding assay ([3H] high affinity TRAP, platelet membrane). The settings on record: platelet membrane of healthy adult; 25 nM [3H] high affinity TRAP; 37° C., 1 hour; read-out: RBA IC50. The procedure: Blood was sampled from a healthy adult who had taken no drugs for one week, and 3.8% citric acid (a ratio of 1:9 with respect to the blood) was added as an anticoagulant. The mixture was then centrifuged at 100 g for 10 minutes at room temperature to yield platelet rich plasma (PRP). The platelet precipitate obtained by centrifuging the PRP was homogenized with a Dounce homogenizer, and then centrifuged at 40,000 g for 60 minutes to yield platelet membrane. The platelet membrane was suspended in a solution prepared by adding DMSO (dimethyl sulfoxide) at 1% concentration to Buffer 1: a 50 mM Tris-HCl buffer containing 10 mM MgCl2 and 1 mM EGTA (ethylene glycol tetraacetic acid), and the suspension was stored at −80° C. Bovine albumin and DMSO were added to Buffer 1 at 0.1% and 20%, respectively, to make preparation solutions for the test compound. The test compounds (20 μl) diluted at various concentrations with the preparation solutions were added to a 96-well multiscreen plate. […] After then adding 100 μl of the previously prepared platelet membrane suspension (0.4 mg/ml) and mixing, incubation was performed at 37° C. for 1 hour. The reaction mixture was suction filtered and then rinsed 3 times with 200 μl of Buffer 1. Next, 30 μl of liquid scintillator was added for measurement of the radioactivity of the plate using a Top Counter (Packard), the value of the radioactivity in the presence of the test compound minus non-specific binding portion was divided by the specific binding value (the value of the binding in the absence of the compound minus the non-specific binding portion) to determine the binding ratio, from which the IC50 value was calculated. The non-specific binding was the value obtained with addition of 10 μM of high affinity TRAP.

The subject of experiment [2] is platelet rich plasma (PRP), thrombin-induced platelet aggregation. In words: Inhibitory effects on platelet aggregation using platelet rich plasma. The format is cell-based. The settings on record: Homo sapiens, 0.1 h, PRP of healthy adult, aggregation initiated with thrombin (0.5–1.5 units/ml), area under aggregation curve, 6 minutes, read-out: Thr IC50. As for the experimental part:
[Inhibitory Effects on Platelet Aggregation Using Platelet Rich Plasma]
Blood was sampled from a healthy adult who had taken no drugs for one week, and 3.8% citric acid (a ratio of 1:9 with respect to the blood) was added as an anticoagulant. The mixture was then centrifuged at 100 g for 10 minutes at room temperature to yield platelet rich plasma (PRP). The PRP-removed blood was further centrifuged at 1000 g for 10 minutes to yield platelet poor plasma (PPP). The number of platelet was counted using a multi-parameter automatic hemocyte counter (K4500, Sysmex), and the PRP was diluted to approximately 300,000/μl with the PPP. The platelet aggregation activity was determined in the following manner using an Aggregometer (MC Medical). GPRP-NH2 (final concentration 1 mM, 25 μl) was added as a fibrin polymerization inhibitor to the PRP (175 μl), after which Ca-free Tyrode solution (control) or the test compound suspension (25 μl) at different concentrations was added, incubation was performed at 37° C. for 3 minutes and then 25 μl of thrombin at the minimum concentration required to produce maximum aggregation (final concentration: optimum concentration among 0.5–1.5 units/ml) was added, for initiation of platelet aggregation. PRP and Ca-free Tyrode solution (control) or the preparation solutions at various concentrations were pre-incubated at 37° C. for 60 minutes, prior to the platelet aggregation reaction in some experiments. After addition of thrombin, the aggregation reaction was examined for 6 minutes and the areas under the aggregation curves were compared to determine the inhibition ratio, from which the IC50 value was calculated.

The subject of experiment [3] is Vascular smooth muscle cells (rSMC). In words: Rat smooth muscle cell proliferation assay. The settings on record: 48 h; male SD rat aorta rSMC; thrombin 0.1 unit/ml; 2 days; MTT, OD 590 nm; read-out: Rat SMC IC50. The format is cell-based. The procedure: [Rat Smooth Muscle Cell Proliferation Assay]
Vascular smooth muscle cells (rSMC) were isolated from male SD rat aorta by the explant method. DMEM medium (Sigma) containing 10% fetal bovine serum (GibcoBRL), streptomycin and penicillin was used as the proliferation medium, and subculture was carried out at 37° C. in the presence of 5% CO2. Culture was initiated after adding 100 μl of rSMC suspension in proliferation medium at a concentration of 1×10^4 cells/ml, to a 96-well plate. After 3 days, cells were rinsed twice with 100 μl of DMEM medium, the medium was exchanged with 100 μl of DMEM medium containing 0.1% albumin (starvation medium), and serum starvation was initiated. The medium was exchanged two days after the serum starvation, 80 μl of starvation medium and 10 μl of the test compound diluted to different concentrations with the starvation medium were added, and then 10 μl of thrombin dissolved in the starvation medium (final concentration: 0.1 unit/ml) was added prior to further incubation for 2 days.
Upon adding 20 μl of MTT (3-[4,5-dimethylthiazol-2-yl]-2,5-diphenyltetrazolium bromide) dissolved in DPBS to 7.5 mg/ml, incubation was continued for 4 hours. The medium was removed by suction, 50 μl of a 10% SDS/0.029% ammonia solution was added, and the mixture was allowed to stand for 2 hours in a CO2 incubator for complete lysis of the cells. As an index of cell proliferation, the OD 590 nm was measured using a plate reader (EL340, BIO-TEK Instruments Inc.), and the control OD value (OD value in the absence of the test compound) minus the OD value in the presence of the test compound was divided by the control OD value minus the blank OD value (OD value without thrombin stimulation) to determine the inhibition ratio, from which the IC50 value was calculated.

Where a name gives a salt, the structure may show the parent alone.

For `CCOc1cc2c(c(F)c1OCC)C(=N)N(CC(=O)c1cc(N3CCC(=O)CC3)c(OC)c(C(C)(C)C)c1)C2` [Example 94, 1-{3-tert-Butyl-5-[2-(5,6-diethoxy-7-fluoro-1-imino-1,3-dihydro-isoindol-2-yl)-acetyl]-2-methoxy-phenyl}-piperidin-4-one hydrobromide], the IC50 came to 0.013 µM in experiment [1], 0.029 µM in experiment [2] and 0.044 µM in experiment [3].

Turning to `CCOc1cc2c(cc1C(=O)NC)C(=N)N(CC(=O)c1cc(OCC)c(O)c(C(C)(C)C)c1)C2` [Example 109, 2-[2-(3-tert-Butyl-5-ethoxy-4-hydroxy-phenyl)-2-oxo-ethyl]-6-ethoxy-3-imino-2,3-dihydro-1H-isoindole-5-carboxylic acid methylamide hydrobromide], the results for the IC50 in experiment [1], in experiment [2] and in experiment [3] were 0.03 µM, 0.012 µM and 0.042 µM, respectively.

In the case of `CCOc1cc2c(c(F)c1OCC)C(=N)N(CC(=O)c1cc(N3CCNCC3)c(OC)c(C(C)(C)C)c1)C2` [Example 112, 1-(3-tert-Butyl-4-methoxy-5-piperazin-1-yl-phenyl)-2-(5,6-diethoxy-7-fluoro-1-imino-1,3-dihydro-isoindol-2-yl)-ethanone dihydrochloride], the IC50 in experiment [1] is 0.03 µM; in experiment [2], 0.028 µM; in experiment [3], 0.052 µM.

In the case of `CCOc1cc2c(c(F)c1OCC)C(=N)N(CC(=O)c1cc(N3CCN(CC(=O)O)CC3)c(OC)c(C(C)(C)C)c1)C2` [Example 127, (4-{3-tert-Butyl-5-[2-(5,6-diethoxy-7-fluoro-1-imino-1,3-dihydro-isoindol-2-yl)-acetyl]-2-methoxy-phenyl}-piperazin-1-yl)-acetic acid dihydrochloride], the IC50 in experiment [1] is 0.017 µM; in experiment [2], 0.021 µM; in experiment [3], 0.15 µM.
